Publication PMC9267097, “Synthesis, In Vitro, and Computational Studies of PTP1B Phosphatase Inhibitors Based on Oxovanadium(IV) and Dioxovanadium(V) Complexes” (International Journal of Molecular Sciences, 2022)

Assays:
PTP1B phosphatase = target: T1, PTP1B phosphatase (Homo sapiens, UniProt P18031); assay: Recombinant PTP1B assay (pNPP substrate); format: biochemical; settings: for inhibitory effect on PTP1B: 78.125 nM (lowest statistically significant concentration); for Ki: calculated as Ki = IC50/(S/Km + 1), S 1 mM, Km 0.7 mM, competitive type assumed from docking, read-out: Ki ± SD; for IC50: recombinant PTP1B 10 nM, 1 mM pNPP, 37 °C, HEPES pH 7.4; for inhibition of PTP1B: concentration range 39.063 to 625 nM
T1 construct: purchased Cayman Chemical, Ann Arbor, MI, USA
T1 sequence (P18031 1-435): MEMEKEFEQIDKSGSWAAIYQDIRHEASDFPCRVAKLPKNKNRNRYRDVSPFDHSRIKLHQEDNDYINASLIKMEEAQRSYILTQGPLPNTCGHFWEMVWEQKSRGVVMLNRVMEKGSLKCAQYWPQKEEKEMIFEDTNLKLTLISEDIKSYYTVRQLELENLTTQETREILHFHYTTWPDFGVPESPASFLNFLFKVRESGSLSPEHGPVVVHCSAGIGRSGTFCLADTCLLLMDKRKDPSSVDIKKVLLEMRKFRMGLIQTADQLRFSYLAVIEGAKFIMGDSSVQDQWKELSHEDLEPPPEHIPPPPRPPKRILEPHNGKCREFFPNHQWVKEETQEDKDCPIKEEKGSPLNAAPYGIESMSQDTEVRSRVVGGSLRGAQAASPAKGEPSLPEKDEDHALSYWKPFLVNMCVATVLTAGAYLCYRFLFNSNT
Method: The experiment was carried out on 96-well plates. The final concentration of PTP1B phosphatase in the reaction samples was […] (10 nM). […] The enzyme activities of PTP1B phosphatase were evaluated at 37 °C using 1 mM chromogenic substrate para-nitrophenyl phosphate (pNPP) in 10 mM HEPES buffer pH 7.4. The increase in absorbance (due to the formation of para-nitrophenols) is linearly proportional to the concentration of enzyme activity (with excessive substrate, i.e., zero-order kinetics) and was measured at 405 nm using DigiRead Communication Software (version 1.2.0.2., Dan Kittrich, Asys Hitech GmbH, Eugendorf, Austria) on the Jupiter microplate reader (Biogenet, Józefów, Poland). Data were expressed as the percentage of untreated enzyme (control).

[1] = test system: MDA-MB-231 breast cancer cell line; assay: Cell viability assay (MTT); format: cell-based; settings: 24 h
Method: (§1) The MCF-7 and MDA-MB-231 breast cancer cell lines and the human keratinocyte HaCaT cell line were obtained from the American Type Culture Collection (ATCC, Manassas, VA, USA). Dulbecco’s modified eagle medium supplemented with 10% fetal bovine serum (FBS) and 1% penicillin/streptomycin was used to cultivate the cell lines. The cells were cultured at 37 °C in a 5% CO2 atmosphere.
(§2) According to the general protocol, a cell viability assay (MTT assay) was performed. […] The chemicals were dissolved in a growth medium containing 1% penicillin/streptomycin. After 24 h, 0.5 mg/mL of MTT solution (3-[4,5-dimethylthiazol-2-yl]-2,5-diphenyl-tetrazolium bromide) was added. 100 µL of DMSO was added to each well once the purple precipitate was clearly visible under the microscope. A microplate reader (Biogenet, Jozefow, Poland) and DigiRead Communication Software were used to measure the absorbance at 492 nm (Asys Hitech GmbH, Eugendorf, Austria). Data were expressed as the percentage of untreated cells (control).

[2] = test system: human keratinocyte HaCaT cell line; assay: Cell viability assay (MTT); format: cell-based; settings: 24 h
Method: as §1, §2

[3] = cited from earlier work; for equivalents of L-ascorbic acid: antioxidant activity towards superoxide radical anion
[4] = test system: MCF-7 breast cancer cell line; assay: Cell viability assay (MTT); format: cell-based; settings: 24 h
Method: as §1, §2

O.O.O.O.O=C([O-])c1cccc(C(=O)[O-])n1.[O]=[V+2] [Compound 1, [VO(dipic)(H2O)2]·2 H2O]
inhibitory effect on PTP1B (PTP1B phosphatase): 17% | Ki (PTP1B phosphatase): 256 ± 15.3 nM | IC50 (PTP1B phosphatase): 628 ± 39.1 nM | cytotoxic effect ([1]; MDA-MB-231, 50 µM): 25% | cytotoxic effect (in words) ([2]; 50 µM): no cytotoxic effect | effect on cell growth (in words) ([2]; low concentrations): improved cell growth at low concentrations | equivalents of L-ascorbic acid [3]: 2.359

O.O=C([O-])c1cccc(C(=O)[O-])n1.[O]=[V+2].c1ccc(-c2ccccn2)nc1 [Compound 2, [VO(dipic)(bipy)]·H2O]
inhibitory effect on PTP1B (PTP1B phosphatase): 19% | Ki (PTP1B phosphatase): 173 ± 17.2 nM | IC50 (PTP1B phosphatase): 426 ± 37.1 nM | cell viability (% of control) ([1]; MDA-MB-231, 25 µM): 65% | cell viability (% of control) ([1]; MDA-MB-231, 50 µM): 56% | cell viability (% of control) ([1]; MDA-MB-231, 100 µM): 44% | equivalents of L-ascorbic acid [3]: 0.936

O.O.O=C1CNCC(=O)[O][V](=[O])[O]1.c1ccc(-c2ccccn2)nc1 [Compound 3, [VO(ida)(bipy)]·2 H2O]
inhibitory effect on PTP1B (PTP1B phosphatase): 25% | Ki (PTP1B phosphatase): 221 ± 19.1 nM | IC50 (PTP1B phosphatase): 543 ± 48.4 nM | cell viability (% of control) ([1]; MDA-MB-231, 25 µM): 76% | cell viability (% of control) ([1]; MDA-MB-231, 50 µM): 55% | cell viability (% of control) ([1]; MDA-MB-231, 100 µM): 46% | equivalents of L-ascorbic acid [3]: 5.43

COc1ccnc(-c2cc(OC)ccn2)c1.O.O.O=C([O-])c1cccc(C(=O)[O-])n1.[O]=[V+2] [Compound 4]
Ki (PTP1B phosphatase): 74.2 ± 4.1 nM | inhibition of PTP1B (PTP1B phosphatase): 31–67% | IC50 (PTP1B phosphatase): 185 ± 9.8 nM | cell viability (% of control) ([4]; MCF-7, 25 µM): 86% | cell viability (% of control) ([4]; MCF-7, 50 µM): 61% | cell viability (% of control) ([4]; MCF-7, 100 µM): 53%

O.O=C1[O][V-](=[O])(=[O])[O]C(=O)c2cccc1n2.c1ccc(-c2cccc[nH+]2)cc1 [Compound 5, [VOO(dipic)](2-phepyH)·H2O]
Ki (PTP1B phosphatase): 66.7 ± 3.3 nM | inhibition of PTP1B (PTP1B phosphatase): 38–68% | IC50 (PTP1B phosphatase): 167 ± 8 nM | calculated equivalent towards L-ascorbic acid ([3]; antioxidant activity towards superoxide anion radicals): 0.68

[Na+].[Na+].[Na+].[O]=[V]([O-])([O-])[O-] [Sodium orthovanadate, reference compound]
inhibition of enzymatic activity of PTP1B (in words) (PTP1B phosphatase; complexes and orthovanadate 39.0625 nM to 5 µM, ligands 500 nM to 5 µM): inhibited the enzymatic activity of PTP1B phosphatase in a concentration-dependent manner | inhibition of PTP1B (PTP1B phosphatase): 31–67%
